Results taken from US10206893B2, “Immunoregulatory agents” (Flexus Biosciences, Inc., priority 2014, dated 2019).
pIC50: −log10 of the molar value.

Molecular target: T1, human IDO1 (Homo sapiens, UniProt P14902)
T1 construct: expressed in transfected cells
Assay: IDO inhibition assay in HEK293 cells stably expressing human IDO1 (kynurenine, Ehrlich reagent)
Assay type: cell-based
Details: 20 hours incubation, read-out: HEK Human IDO-1 Bio Activity
Procedure: They were cultured in medium (DMEM with 10% FBS) containing 1 mg/ml G418 for two weeks.
The human IDO1/HEK293 cells were seeded at 10,000 cells per 50 μL per well with RPMI/phenol red free media contains 10% FBS in a 384-well black wall clear bottom tissue culture plate (Matrix Technologies LLC) 100 nL of certain concentration of compound was then added to each well using ECHO liquid handling systems. The cells were incubated for 20 hours in 37° C. incubator with 5% CO2.
The compound treatments were stopped by adding trichloroacetic acid (Sigma-Aldrich) to a final concentration at 0.2%. The cell plate was further incubated at 50° C. for 30 minute. The equal volume supernatant (20 μL) and 0.2% (w/v) Ehrlich reagent (4-dimethylaminobenzaldehyde, Sigma-Aldrich) in glacial acetic acid were mixed in a new clear bottom 384-well plate. This plate was then incubated at room temperature for 30 minute. The absorbance at 490 nm was measured on Envision plate reader.

T1 sequence (P14902 whole entry): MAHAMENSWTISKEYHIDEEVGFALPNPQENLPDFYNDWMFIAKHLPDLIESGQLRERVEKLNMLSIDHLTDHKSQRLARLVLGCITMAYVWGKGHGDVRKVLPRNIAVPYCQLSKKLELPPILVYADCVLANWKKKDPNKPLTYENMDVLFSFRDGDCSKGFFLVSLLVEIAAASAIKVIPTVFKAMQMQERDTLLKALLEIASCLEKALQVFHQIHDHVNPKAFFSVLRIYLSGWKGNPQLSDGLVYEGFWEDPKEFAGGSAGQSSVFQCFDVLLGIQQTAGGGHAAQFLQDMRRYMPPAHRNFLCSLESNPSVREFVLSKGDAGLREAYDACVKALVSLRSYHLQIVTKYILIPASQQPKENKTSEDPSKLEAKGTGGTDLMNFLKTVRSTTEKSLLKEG

| Compound | pIC50 |
| --- | --- |
| CC[C@@H](NC(=O)c1ccc(-c2ccccc2)cc1)[C@H]1CC[C@H](c2cnc3ccccc3c2)CC1 [Example 201, N—((R)-1-((1r,4R)-4-(quinolin-3-yl)cyclohexyl)propyl)-[1,1′-biphenyl]-4-carboxamide] | > 6.60 |
| CC[C@H](NC(=O)c1ccc(-c2ccccc2)cc1)[C@H]1CC[C@H](c2cnc3ccccc3c2)CC1 [Example 202, N—((S)-1-((1r,4S)-4-(quinolin-3-yl)cyclohexyl)propyl)-[1,1′-biphenyl]-4-carboxamide] | > 7.30 |
| COc1ccc(-c2ccc(C(=O)N[C@H](C)[C@H]3CC[C@@H](c4ccnc5ccc(F)cc54)CC3)cc2)nc1 [Example 239, N-((R)-1-((1s,4S)-4-(6-fluoroquinolin-4-yl)cyclohexyl)ethyl)-4-(5-methoxypyridin-2-yl)benzamide] | > 7.30 |
| (R)-1-(cis-4-(6-fluoroquinolin-4- yl)cyclohexyl)-N-methylethanamine [Example 194] | > 7.30 |
